This is an account of results in publication PMC6436534 (Chemistry (Weinheim an der Bergstrasse, Germany), 2019).

SMILES strings stand for the structures. Values after ≈ are worked out from the molar mass of the structure shown. Where two headings read alike, the source gives them in different places.

Series [1] concerns breast cancer (MCF7) cell line. The series can be described thus: Activity against breast cancer cell line. Format: cell-based. Conditions: for IC50: MCF7 breast cancer cell line.
The test system of series [2] is melanoma (MM96L) cell line. The experiment in a line: Activity against melanoma cell line. The format is cell-based.
For series [3] the following is noted: traditional octanol water partition coefficient determination.
For the next series, the system named is scabies mites. The series can be described thus: Scabies mite mortality. Conditions: at 8 h; same concentration as benzyl benzoate.
A short description of series [4]: Chemical stability on storage. Conditions: stored at 8 °C for approximately two years, 1H NMR analysis. Format: physicochemical.
The subject of a further series is adult male C57BL6/J mice. The experiment in a line: Open field test. The format is in vivo. Conditions: OFT, compared to vehicle (water).
For series [5] the following is noted: for half-life: human liver microsomes, standard 60 min incubation; for metabolites observed by LC-MS: stored human liver microsomal incubates. In general terms: Liver microsomes are vesicles of endoplasmic reticulum, rich in cytochrome P450 enzymes.
Series [6] relates to vitamin K epoxide reductase (VKOR). The series can be described thus: VKOR inhibition in FIXgla-PC/HEK293 reporter cells. Conditions: relative to (R)-enantiomer of cubane analogue.
For series [7] the following is noted: clinically relevant warfarin analogue; cited from earlier work.
In the next series the test system is mouse. Conditions: earlier in vivo mouse studies; cited from earlier work.

The IC50 is the point on the concentration scale where inhibition reaches its midpoint. Lower therefore signals greater potency. In general, log P refers to a log measure of how a compound divides between an organic and an aqueous phase. A low value points to a more hydrophilic compound. As for `O=C(CCCCCCC(=O)NC1=CC=CC=CC=C1)NO` [compound 23], in series [1] (MCF7 and MM96L cell lines, relative to SAHA), the “fold less active than SAHA” value is listed as “ca. 2 fold”. The “fold more active than 16” value in [1] (MCF7 and MM96L cell lines, relative to cubane derivative 16) is reported as “ca. 2 fold”. The half-inhibitory concentration (IC50) in series [1] was 0.037 ± 0.003 mg/L (≈ 0.127 µM); in [2], 0.073 ± 0.008 mg/L (≈ 0.251 µM). In addition, in series [3], the lipophilicity (log P) is reported as 1.38.

Take `O=C(OCc1ccccc1)C1=CC=CC=CC=C1` [compound 26]: in series [3], the “log P” value came out at 3.34. For the same molecule, in the series with scabies mites, the mite mortality was 75%.

In the case of `CC1(O)CC(C2=CC=CC=CC=C2)c2c(c3ccccc3oc2=O)O1` (stereo not shown) [compound 8, COT-warfarin], the chemical stability result in [4] is “no signs of decomposition”. The “log P” value in series [3] was determined as 2.82.

With `O=C(NCCN1CCOCC1)c1ccc(Cl)cc1` [compound 9, moclobemide], the “locomotor profile / total distance travelled” value in the series with adult male C57BL6/J mice was “decrease the total distance travelled by the same amount compared to the vehicle”.

As a reminder, the half-life is the time in which the quantity being followed falls by half. For `CC(=O)C[C@H](C1=CC=CC=CC=C1)c1c(O)c2ccccc2oc1=O` [(R)-COT], in series [5], the half-life was 2.17 ± 0.333 h and the “metabolites observed by LC-MS” value was “significant quantities of an M+2 metabolite”.

In the case of `CC(=O)C[C@@H](C1=CC=CC=CC=C1)c1c(O)c2ccccc2oc1=O` [(S)-COT], in [5], the half-life amounted to 1.83 ± 0.633 h and the “metabolites observed by LC-MS” value was “substantial peaks exhibiting an M+16”.

Turning to `CC(=O)CC(c1c(O)c2ccccc2oc1=O)C12C3C4C5C3C1C5C42` [(S)-cubane analogue], in series [6], the “VKOR inhibition, fold lower activity than the (R)-enantiomer” value is recorded as “ca. 3 fold”.

For the molecule `CC(=O)CC(c1ccc([N+](=O)[O-])cc1)c1c(O)c2ccccc2oc1=O` (stereo not shown) [acenocoumarol], in series [7], the half-life was 10 h.

Regarding `O=C(CCCCCCC(=O)NC12C3C4C5C3C1C5C42)NO` (stereo not shown) [compound 16], the IC50 was 0.053 ± 0.004 mg/L (≈ 0.183 µM) in series [1] and 0.137 ± 0.005 mg/L (≈ 0.472 µM) in [2]. Besides, the “log P” value in [3] turned out to be 1.52. In addition, in the series with mouse, the in vivo activity entry is given as “identical activity”.

For the molecule `O=C(CCCCCCC(=O)Nc1ccccc1)NO` [compound 11, suberanilohydroxamic acid, reference compound], in series [3], the “log P” value is 0.99. Moreover, in the series on mouse, the in vivo activity entry is listed as “identical activity”.
